Results taken from publication PMC4076210, “Discovery of Novel AKT Inhibitors with Enhanced Anti-Tumor Effects in Combination with the MEK Inhibitor” (PLoS ONE, 2014).

Tested on: solid tumor cell lines
Assay: 3-day proliferation assay (CellTiter-Glo)
Format: cell-based, human
Conditions: for IC50: Homo sapiens
Method in brief: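 Growth inhibition was read by CellTiter-Glo after 3 days' exposure to 0–30 µM compound and expressed against DMSO controls. EC50 was derived by 4- or 6-parameter fitting. Cells were mostly grown in RPMI plus 10% FBS, some in vendor-specified media.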

Cn1ncc(Cl)c1-c1cc(C(=O)N[C@H](CN)Cc2ccc(F)c(F)c2)oc1Cl [GSK2141795]
solid tumor cell lines with EC50<1 µM (178 cell lines, 3 days, CTG): 36%
IC50 (22Rv1, 22Rv1, Prostate): 0.244 µM
IC50 (647-V, 647V, Bladder): 7.55 µM
IC50 (786-0, 786-O, Kidney): 0.577 µM
IC50 (A 172, A172, Brain): 5.7 µM
IC50 (A204, A204, Sarcoma): 1.06 µM
IC50 (A549, A549, Lung): 1.54 µM
IC50 (A673, A673, Sarcoma): 3.41 µM
IC50 (A2780, A2780, Ovary): 2.31 µM
IC50 (A-375, A375, Skin): 13.8 µM
IC50 (A-427, A427, Lung): 1.96 µM
IC50 (ACHN, Kidney): 1.48 µM
IC50 (AGS, Stomach): 0.491 µM
IC50 (BE(2)-C, BE2C, Neuroblastoma): 0.664 µM
IC50 (BFTC-905, BFTC905, Bladder): 1.38 µM
IC50 (BT-20, BT20, Breast): 0.079 µM
IC50 (BXPC-3, BXPC3, Pancreas): 17.2 µM
IC50 (C3A, Liver): 0.966 µM
IC50 (C32TG, Skin): 0.537 µM
IC50 (C-33-A, C-33A, Cervix): 0.238 µM
IC50 (C-41, Cervix): 15.5 µM
IC50 (CAL-27, CAL27, Head & Neck): 6.59 µM
IC50 (CAL-62, CAL62, Thyroid): 8.05 µM
IC50 (CCF-STTG1, CCFSTTG1, Brain): 0.164 µM
IC50 (CGTH-W-1, CGTHW1, Thyroid): 2.1 µM
IC50 (CHL-1, CHL1, Skin): 3.04 µM
IC50 (CHP-212, CHP212, Neuroblastoma): 0.595 µM
IC50 (COLO 205, COLO205, Colon): 3.68 µM
IC50 (COLO 320DM, COLO320DM, Colon): 0.698 µM
IC50 (COLO 704, COLO704, Ovary): 0.104 µM
IC50 (COR-L23, CORL23, Lung): 5.51 µM
IC50 (Calu-3, CALU3, Lung): 0.85 µM
IC50 (Calu-6, CALU6, Lung): 3.72 µM
IC50 (Caov-3, CAOV3, Ovary): 4.23 µM
IC50 (Capan-2, Capan2, Pancreas): 4.23 µM
IC50 (DBTRG-05MG, DBTRG05MG, Brain): 3.69 µM
IC50 (DKMG, Brain): 0.946 µM
IC50 (DLD-1, DLD1, Colon): 5.92 µM
IC50 (DU-145, DU145, Prostate): 3.46 µM
IC50 (DU-4475, DU4475, Breast): 1.76 µM
IC50 (DoTc2-4510, DoTc24510, Cervix): 1.38 µM
IC50 (EFM-19, EFM19, Breast): 0.049 µM
IC50 (EKVX, Lung): 3.91 µM
IC50 (ES2, Ovary): 1.75 µM
IC50 (FaDu, Head & Neck): 9.18 µM
IC50 (G-401, G401, Head & Neck): 0.473 µM
IC50 (GCT, Sarcoma): 3.2 µM
IC50 (H4, Brain): 1.63 µM
IC50 (HCC70, HCC70, Breast): 0.038 µM
IC50 (HCC1954, HCC1954, Breast): 0.117 µM
IC50 (HCC 2998, HCC2998, Colon): 1.4 µM
IC50 (HCT-116, HCT116, Colon): 3.99 µM
IC50 (HMCB, Skin): 2.83 µM
IC50 (HN5, Head & Neck): 1.99 µM
IC50 (HOS, Sarcoma): 1.18 µM
IC50 (HPAF-II, HPAFII, Pancreas): 4.33 µM
IC50 (HT3, Cervix): 1.45 µM
IC50 (HT-29, HT29, Colon): 1.03 µM
IC50 (HT-1080, HT1080, Sarcoma): 3.46 µM
IC50 (HUVEC, Normal Endothelial): 3.18 µM
IC50 (HeLa, Cervix): 5.72 µM
IC50 (Hep3B, Liver): 0.154 µM
IC50 (Hs746T, Stomach): 1.09 µM
IC50 (IGROV-1, IGROV1, Ovary): 0.021 µM
IC50 (J82, Bladder): 0.783 µM
IC50 (KATO III, KATOIII, Stomach): 0.255 µM
IC50 (KHOS-240S, KHOS240S, Sarcoma): 7.4 µM
IC50 (KM12, KM12, Colon): 3.27 µM
IC50 (KPL-1, KPL1, Breast): 1.39 µM
IC50 (KYSE-30, KYSE30, Oesophagus): 3.21 µM
IC50 (LNCaP, Prostate): 0.057 µM
IC50 (LS174T, Colon): 1.36 µM
IC50 (LS-1034, LS1034, Colon): 1.64 µM
IC50 (M14, Skin): 1.88 µM
IC50 (MC-IXC, MCIXC, Neuroblastoma): 0.282 µM
IC50 (MCF7, MCF7, Breast): 0.139 µM
IC50 (MCF-10A, MCF10A, Normal Breast): 0.528 µM
IC50 (MDA-MB-175-VII, MDAMB175-VII, Breast): 0.086 µM
IC50 (MDA-MB-231, MDAMB231, Breast): 7.62 µM
IC50 (MDA-MB-453, MDAMB453, Breast): 0.474 µM
IC50 (MDA-MB-468, MDAMB468, Breast): 0.369 µM
IC50 (MES-SA, MESSA, Sarcoma): 0.342 µM
IC50 (MIA PaCa-2, MiaPaCa, Pancreas): 0.871 µM
IC50 (NCI-H69, NCIH69, Lung): 0.648 µM
IC50 (NCI-H82, NCIH82, Lung): 15.1 µM
IC50 (NCI-H146, NCIH146, Lung): 7.77 µM
IC50 (NCI-H157, NCIH157, Lung): 1.34 µM
IC50 (NCI-H187, NCIH187, Lung): 0.115 µM
IC50 (NCI-H209, NCI-H209, Lung): 0.853 µM
IC50 (NCI-H226, NCIH226, Lung): 2.75 µM
IC50 (NCI-H292, NCIH292, Lung): 2.87 µM
IC50 (NCI-H322, NCIH322, Lung): 4.71 µM
IC50 (NCI-H358, NCI-H358, Lung): 0.635 µM
IC50 (NCI-H446, NCIH446, Lung): 0.256 µM
IC50 (NCI-H460, NCIH460, Lung): 1.94 µM
IC50 (NCI-H508, NCIH508, Lung): 0.159 µM
IC50 (NCI-H520, NCIH520, Lung): 0.2 µM
IC50 (NCI-H630, NCIH630, Lung): 3.08 µM
IC50 (NCI-H661, NCIH661, Lung): 3.3 µM
IC50 (NCI-H716, NCIH716, Colon): 1.64 µM
IC50 (NCI-H747, NCIH747, Lung): 0.474 µM
IC50 (NCI-H1563, NCIH1563, Lung): 0.14 µM
IC50 (NCI-H1792, NCIH1792, Lung): 2.84 µM
IC50 (NCI-H2030, NCIH2030, Lung): 3.16 µM
IC50 (NCI-H2052, NCIH2052, Lung): 1.59 µM
IC50 (NCI-H2081, NCIH2081, Lung): 0.507 µM
IC50 (NCI-H2122, NCIH2122, Lung): 1.91 µM
IC50 (NCI-H2170, NCI-H2170, Lung): 3.19 µM
IC50 (NCI-H2228, NCIH2228, Lung): 0.409 µM
IC50 (NCI-N87, NCIN87, Stomach): 0.568 µM
IC50 (NCI/ADR-RES, NCIADRRES, Breast): 8.01 µM
IC50 (OE19, OE19, Oesophagus): 2.28 µM
IC50 (OE21, OE21, Oesophagus): 0.111 µM
IC50 (OE33, OE33, Oesophagus): 4.28 µM
IC50 (OV-90, OV90, Ovary): 2.08 µM
IC50 (OVCAR-3, OVCAR3, Ovary): 3.15 µM
IC50 (OVCAR-4, OVCAR4, Ovary): 29.3 µM
IC50 (OVCAR-5, OVCAR5, Ovary): 5.27 µM
IC50 (PANC-1, Panc1, Pancreas): 2.22 µM
IC50 (PC3, Prostate): 1.39 µM
IC50 (PL45, PL45, Pancreas): 6.1 µM
IC50 (Panc 02.03, Panc02.03, Pancreas): 10.7 µM
IC50 (RD, Sarcoma): 6.29 µM
IC50 (RD-ES, RDES, Sarcoma): 0.808 µM
IC50 (RKO, Colon): 0.676 µM
IC50 (SAOS-2, SAOS2, Sarcoma): 2.37 µM
IC50 (SCC12, SCC12, Head & Neck): 1.29 µM
IC50 (SCC-9, SCC9, Head & Neck): 2.39 µM
IC50 (SCC-13, SCC-13, Head & Neck): 23.7 µM
IC50 (SCC-15, SCC15, Head & Neck): 1.98 µM
IC50 (SCC-25, SCC-25, Head & Neck): 2.48 µM
IC50 (SCLC3, Lung): 0.054 µM
IC50 (SF-295, SF295, Brain): 0.373 µM
IC50 (SF-539, SF539, Brain): 0.388 µM
IC50 (SH4, Skin): 5.53 µM
IC50 (SHP77, SHP77, Lung): 3.1 µM
IC50 (SJRH30, SJRH30, Sarcoma): 0.284 µM
IC50 (SK-BR-3, SKBR3, Breast): 0.096 µM
IC50 (SK-LMS-1, SKLMS1, Sarcoma): 5.87 µM
IC50 (SK-MEL-1, SKMEL1, Skin): 2.5 µM
IC50 (SK-MEL-28, SKMEL28, Skin): 1.61 µM
IC50 (SK-MES-1, SKMES-1, Lung): 2.19 µM
IC50 (SK-N-AS, SKNAS, Neuroblastoma): 3.4 µM
IC50 (SK-OV-3, SKOV3, Ovary): 0.435 µM
IC50 (SK-UT-1, SKUT1, Sarcoma): 0.202 µM
IC50 (SKNF1, Neuroblastoma): 0.239 µM
IC50 (SN12C, Kidney): 11.3 µM
IC50 (SNB-75, SNB75, Brain): 0.449 µM
IC50 (SNU1, SNU1, Stomach): 1.42 µM
IC50 (SNU-5, SNU5, Stomach): 7.81 µM
IC50 (SNU-16, SNU16, Stomach): 7.21 µM
IC50 (SNU-398, SNU398, Liver): 13.5 µM
IC50 (SNU-449, SNU449, Liver): 6.05 µM
IC50 (SW48, SW48, Colon): 0.328 µM
IC50 (SW480, SW480, Colon): 10.3 µM
IC50 (SW579, SW579, Thyroid): 0.957 µM
IC50 (SW684, SW684, Sarcoma): 0.336 µM
IC50 (SW756, SW756, Cervix): 8.29 µM
IC50 (SW780, SW780, Bladder): 4.96 µM
IC50 (SW872, SW872, Sarcoma): 0.289 µM
IC50 (SW900, SW900, Lung): 8.22 µM
IC50 (SW1088, SW1088, Brain): 0.532 µM
IC50 (SW1417, SW1417, Colon): 1.36 µM
IC50 (SW1783, SW1783, Brain): 0.182 µM
IC50 (SW1990, SW1990, Pancreas): 9.15 µM
IC50 (Skut1B, Sarcoma): 0.01 µM
IC50 (T47D, T-47D, Breast): 0.063 µM
IC50 (T84, Colon): 2.24 µM
IC50 (TE 381.T, TE381T, Sarcoma): 0.834 µM
IC50 (TK-10, TK10, Kidney): 3.33 µM
IC50 (U20S, Sarcoma): 23.2 µM
IC50 (U138-MG, U138MG, Brain): 1.16 µM
IC50 (U-87 MG, U87MG, Brain): 3.31 µM
IC50 (U-251, U251, Brain): 1.23 µM
IC50 (UACC-62, UACC62, Skin): 1.23 µM
IC50 (UACC-257, UACC257, Skin): 2.99 µM
IC50 (UMUC3, UMUC3, Bladder): 5.83 µM
IC50 (YAPC, Pancreas): 10.3 µM
IC50 (ZR-75-1, ZR75-1, Breast): 0.033 µM
